Measurements reported in ChEMBL document CHEMBL1125512, “Synthesis and antiviral activity of methyl derivatives of 9-[2-(phosphonomethoxy)ethyl]guanine” (J Med Chem, 1992).

Tested on: MRC5
Assay: In vitro antiherpesvirus activity against MRC-5 cells infected with HCMV (AD-169 strain)
Type: functional, cell-based
Conditions: Homo sapiens

Point of comparison: `Nc1nc2c(ncn2COC(CO)CO)c(=O)[nH]1` [GANCICLOVIR], IC50 4 µM. Against it:
- C[C@H](Cn1cnc2c(O)nc(N)nc21)OCP(=O)(O)O — 4-fold higher, 16 µM
- Nc1nc(O)c2ncn(CC(CO)OCP(=O)(O)O)c2n1 (single isomer, unassigned; form 2) — 5-fold lower, 0.8 µM
- CC(C)(Cn1cnc2c(O)nc(N)nc21)OCP(=O)(O)O — higher, > 300 µM
- CC(COCP(=O)(O)O)n1cnc2c(O)nc(N)nc21 (stereo not drawn) — 3.1-fold lower, 1.3 µM
- C[C@@H](Cn1cnc2c(O)nc(N)nc21)OCP(=O)(O)O — 4-fold higher, 16 µM
- Nc1nc2c(ncn2CC(CO)OCP(=O)(O)O)c(=O)[nH]1 (single isomer, unassigned; form 1) — 2.5-fold lower, 1.6 µM
- Nc1nc2c(ncn2CCOCP(=O)(O)O)c(=O)[nH]1 [GS-438] — 44-fold lower, 0.09 µM

Tested on: not listed separately
Assay: In vitro cellular toxicity in vero cells
Type: cell-based
Conditions: chlorocebus sabaeus, read-out: TC50 (the source's name)

Point of comparison: `CC(COCP(=O)(O)O)n1cnc2c(O)nc(N)nc21` (stereo not drawn), CC50 200 µM. Against it:
- C[C@H](Cn1cnc2c(O)nc(N)nc21)OCP(=O)(O)O — higher, > 330 µM
- Nc1nc(O)c2ncn(CC(CO)OCP(=O)(O)O)c2n1 (single isomer, unassigned; form 2) — higher, > 310 µM
- CC(C)(OCCn1cnc2c(O)nc(N)nc21)P(=O)(O)O — higher, > 330 µM
- C[C@@H](Cn1cnc2c(O)nc(N)nc21)OCP(=O)(O)O — higher, > 330 µM
- Nc1nc2c(ncn2CC(CO)OCP(=O)(O)O)c(=O)[nH]1 (single isomer, unassigned; form 1) — higher, > 310 µM
- Cc1nc2c(O)nc(N)nc2n1CCOCP(=O)(O)O — higher, > 330 µM
- CC(OCCn1cnc2c(O)nc(N)nc21)P(=O)(O)O (stereo not drawn) — higher, > 330 µM

Same assay, conditions: read-out: TC50 (the source's name)

For `Nc1nc2c(ncn2CCOCP(=O)(O)O)c(=O)[nH]1` [GS-438], the CC50 was 17 µM.

Tested on: not listed separately
Assay: Selectivity Index is the ratio of the TC50 to EC50
Conditions: read-out: Selectivity index

Point of comparison: `CC(COCP(=O)(O)O)n1cnc2c(O)nc(N)nc21` (stereo not drawn), selectivity ratio 25. Against it:
- C[C@H](Cn1cnc2c(O)nc(N)nc21)OCP(=O)(O)O — higher, > 500
- Nc1nc(O)c2ncn(CC(CO)OCP(=O)(O)O)c2n1 (single isomer, unassigned; form 2) — lower, < 1
- CC(C)(Cn1cnc2c(O)nc(N)nc21)OCP(=O)(O)O — higher, > 38
- C[C@@H](Cn1cnc2c(O)nc(N)nc21)OCP(=O)(O)O — the same, 25
- Nc1nc2c(ncn2CC(CO)OCP(=O)(O)O)c(=O)[nH]1 (single isomer, unassigned; form 1) — not separable, > 1
- Nc1ncnc2c1ncn2CCOCP(=O)(O)O [ADEFOVIR] — higher, > 27
- Cc1nc2c(O)nc(N)nc2n1CCOCP(=O)(O)O — not separable, > 1
- CC(OCCn1cnc2c(O)nc(N)nc21)P(=O)(O)O (stereo not drawn) — not separable, > 1
- Nc1nc2c(ncn2CCOCP(=O)(O)O)c(=O)[nH]1 [GS-438] — higher, 75

Tested on: Vero
Assay: In vitro antiherpesvirus activity against vero cells infected with HSV-2(G strain)[plaque reduction assay]
Type: functional, cell-based
Conditions: Chlorocebus sabaeus

Point of comparison: `Nc1nc2c(ncn2CC(CO)OCP(=O)(O)O)c(=O)[nH]1` (single isomer, unassigned; form 1), IC50 99 µM. Against it:
- C[C@H](Cn1cnc2c(O)nc(N)nc21)OCP(=O)(O)O — within 1.5-fold, 82 µM
- Nc1nc(O)c2ncn(CC(CO)OCP(=O)(O)O)c2n1 (single isomer, unassigned; form 2) — within 1.5-fold, 97 µM
- Nc1nc2c(ncn2COCCO)c(=O)[nH]1 [ACYCLOVIR] — 82-fold lower, 1.2 µM
- CC(C)(Cn1cnc2c(O)nc(N)nc21)OCP(=O)(O)O — higher, > 300 µM
- CC(COCP(=O)(O)O)n1cnc2c(O)nc(N)nc21 (stereo not drawn) — 9-fold lower, 11 µM
- CC(C)(OCCn1cnc2c(O)nc(N)nc21)P(=O)(O)O — higher, > 300 µM
- C[C@@H](Cn1cnc2c(O)nc(N)nc21)OCP(=O)(O)O — 2.3-fold lower, 43 µM
- Cc1nc2c(O)nc(N)nc2n1CCOCP(=O)(O)O — 1.7-fold higher, 172 µM
- CC(OCCn1cnc2c(O)nc(N)nc21)P(=O)(O)O (stereo not drawn) — 1.6-fold higher, 158 µM
- Nc1nc2c(ncn2CCOCP(=O)(O)O)c(=O)[nH]1 [GS-438] — 90-fold lower, 1.1 µM

Tested on: CCRF-CEM
Assay: In vitro CEM cell growth inhibition by measuring the number of cells after treatment for 72 hours
Type: functional
Conditions: Homo sapiens

Point of comparison: `Nc1nc2c(ncn2CCOCP(=O)(O)O)c(=O)[nH]1` [GS-438], CC50 0.2 µM. Against it:
- C[C@H](Cn1cnc2c(O)nc(N)nc21)OCP(=O)(O)O — 900-fold higher, 180 µM
- C[C@@H](Cn1cnc2c(O)nc(N)nc21)OCP(=O)(O)O — 60-fold higher, 12 µM

Tested on: CCRF-CEM
Assay: In vitro anti -HIV activity tested against CEM cells infected with HIV by XTT assay
Type: functional, cell-based
Conditions: Homo sapiens

Point of comparison: `C[C@H](Cn1cnc2c(O)nc(N)nc21)OCP(=O)(O)O`, EC50 1 µM. Against it:
- Nc1nc(O)c2ncn(CC(CO)OCP(=O)(O)O)c2n1 (single isomer, unassigned; form 2) — higher, > 500 µM
- CC(C)(Cn1cnc2c(O)nc(N)nc21)OCP(=O)(O)O — 2.6-fold higher, 2.6 µM
- CC(COCP(=O)(O)O)n1cnc2c(O)nc(N)nc21 (stereo not drawn) — 5-fold higher, 5 µM
- C[C@@H](Cn1cnc2c(O)nc(N)nc21)OCP(=O)(O)O — 12-fold higher, 12 µM
- Nc1nc2c(ncn2CC(CO)OCP(=O)(O)O)c(=O)[nH]1 (single isomer, unassigned; form 1) — 500-fold higher, 500 µM
- Nc1ncnc2c1ncn2CCOCP(=O)(O)O [ADEFOVIR] — 18-fold higher, 18 µM
- Cc1nc2c(O)nc(N)nc2n1CCOCP(=O)(O)O — higher, > 100 µM
- CC(OCCn1cnc2c(O)nc(N)nc21)P(=O)(O)O (stereo not drawn) — higher, > 100 µM
- Nc1nc2c(ncn2CCOCP(=O)(O)O)c(=O)[nH]1 [GS-438] — 5-fold lower, 0.2 µM

Tested on: not listed separately
Assay: In vitro cellular toxicity in WI-38 cells
Type: cell-based
Conditions: human, read-out: TC50 (the source's name)

With `CC(C)(Cn1cnc2c(O)nc(N)nc21)OCP(=O)(O)O` the CC50 was > 330 µM.

Tested on: not listed separately
Assay: Toxicity in vitro against CEM cells by XTT assay
Type: cell-based
Conditions: human, CCRF-CEM (CEM) cells; read-out: TC50 (the source's name)

Point of comparison: `Nc1nc(O)c2ncn(CC(CO)OCP(=O)(O)O)c2n1` (single isomer, unassigned; form 2), CC50 350 µM. Against it:
- C[C@H](Cn1cnc2c(O)nc(N)nc21)OCP(=O)(O)O — higher, > 500 µM
- CC(C)(Cn1cnc2c(O)nc(N)nc21)OCP(=O)(O)O — not separable, > 100 µM
- CC(COCP(=O)(O)O)n1cnc2c(O)nc(N)nc21 (stereo not drawn) — within 1.5-fold, 250 µM
- C[C@@H](Cn1cnc2c(O)nc(N)nc21)OCP(=O)(O)O — within 1.5-fold, 300 µM
- Nc1nc2c(ncn2CC(CO)OCP(=O)(O)O)c(=O)[nH]1 (single isomer, unassigned; form 1) — higher, > 500 µM
- Nc1ncnc2c1ncn2CCOCP(=O)(O)O [ADEFOVIR] — higher, > 500 µM
- Cc1nc2c(O)nc(N)nc2n1CCOCP(=O)(O)O — not separable, > 100 µM
- CC(OCCn1cnc2c(O)nc(N)nc21)P(=O)(O)O (stereo not drawn) — not separable, > 100 µM
- Nc1nc2c(ncn2CCOCP(=O)(O)O)c(=O)[nH]1 [GS-438] — 23-fold lower, 15 µM

Tested on: not listed separately
Assay: In vitro cellular toxicity in MRC-5 cells
Type: cell-based, MRC5
Conditions: human, read-out: TC50 (the source's name)

Point of comparison: `Nc1nc2c(ncn2CCOCP(=O)(O)O)c(=O)[nH]1` [GS-438], CC50 30 µM. Against it:
- C[C@H](Cn1cnc2c(O)nc(N)nc21)OCP(=O)(O)O — higher, > 330 µM
- Nc1nc(O)c2ncn(CC(CO)OCP(=O)(O)O)c2n1 (single isomer, unassigned; form 2) — higher, > 310 µM
- CC(COCP(=O)(O)O)n1cnc2c(O)nc(N)nc21 (stereo not drawn) — higher, > 300 µM
- C[C@@H](Cn1cnc2c(O)nc(N)nc21)OCP(=O)(O)O — higher, > 330 µM
- Nc1nc2c(ncn2CC(CO)OCP(=O)(O)O)c(=O)[nH]1 (single isomer, unassigned; form 1) — higher, > 310 µM
